From patent US20240391862A1, “(1,4,5-TRISUBSTITUTED-1H-PYRAZOL-3-YL)OXY-2-ALKOXY ALKYL ACIDS AND THEIR DERIVATIVES, THEIR SALTS AND THEIR USE AS HERBICIDAL AGENTS” (Bayer AKtiengesellschaft, priority 2021, published 2024)

Legend:
SETVI = test: Post-emergence herbicidal effect, greenhouse pot test; type: in vivo, Setaria viridis
Procedure, shortened: (§1)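 Sandy loam pots, greenhouse. One-leaf stage (2–3 wk after sowing) foliar spray; WP/EC in water + 0.5% additive, 600 l/ha; 20–320 g/ha. Visual score ~3 wk, 0–100% vs untreated.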

POLCO = test: as above; type: in vivo, Fallopia convolvulus; conditions: for pest or weed control at 80 g/ha / pest or weed control at 320 g/ha: Fallopia convolvulus, 504 h, read-out: Post-emergence effect against POLCO in %
Procedure, shortened: as §1

ECHCG = test: as above; type: in vivo, Echinochloa crus-galli
Procedure, shortened: as §1

VIOTR = test: as above; type: in vivo, Viola tricolor; conditions: for pest or weed control at 80 g/ha / pest or weed control at 320 g/ha: Viola tricolor, 504 h, read-out: Post-emergence effect against VIOTR in %
Procedure, shortened: as §1

MATIN = test: as above; type: in vivo, Tripleurospermum inodorum
Procedure, shortened: as §1

LOLRI = test: as above; type: in vivo, Lolium rigidum; conditions: for pest or weed control at 320 g/ha: Lolium rigidum, 504 h, read-out: Post-emergence effect against LOLRI in %
Procedure, shortened: as §1

ALOMY = test: as above; type: in vivo, Alopecurus myosuroides; conditions: 320 g/ha, visual rating about 3 weeks after treatment; for pest or weed control at 320 g/ha: Alopecurus myosuroides, 504 h, read-out: Post-emergence effect against ALOMY
Procedure, shortened: as §1

VERPE = test: as above; type: in vivo, Veronica persica
Procedure, shortened: as §1

AVEFA = test: as above; type: in vivo, Avena fatua; conditions: visual rating about 3 weeks after treatment; for pest or weed control at 320 g/ha: Avena fatua, 504 h, read-out: Post-emergence effect against AVEFA
Procedure, shortened: as §1

DIGSA = test: as above; type: in vivo, Digitaria sanguinalis; conditions: 320 g/ha, visual rating about 3 weeks after treatment; for pest or weed control at 320 g/ha: Digitaria sanguinalis, 504 h, read-out: Post-emergence effect against DIGSA
Procedure, shortened: as §1

AMARE = test: as above; type: in vivo, Amaranthus retroflexus; conditions: visual rating about 3 weeks after treatment
Procedure, shortened: as §1

PHBPU = test: as above; type: in vivo, Ipomoea purpurea; conditions: for pest or weed control at 80 g/ha / pest or weed control at 320 g/ha: Ipomoea purpurea, 504 h, read-out: Post-emergence effect against PHBPU in %
Procedure, shortened: as §1

ABUTH = test: as above; type: in vivo, Abutilon theophrasti; conditions: visual rating about 3 weeks after treatment
Procedure, shortened: as §1

TRZAS = test: Post-emergence herbicidal effect and crop plant compatibility, greenhouse pot test; type: in vivo, Triticum aestivum; conditions: 20 g/ha, one-leaf stage, rated visually after about 3 weeks vs untreated controls; for percent crop injury (phytotoxicity) to wheat, post-emergence at 20 g/ha: Triticum aestivum, 504 h, read-out: Post-emergence effect at 20 g/ha against TRZAS in %
Procedure, shortened: (§2)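 Visual % activity scored roughly 3 weeks post-spray against untreated plants, where 100% means death and 0% equals control. Plants were treated at the one-leaf stage, 2 to 3 weeks after sowing in sandy loam, at 20 to 320 g/ha.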

ZEAMX = test: as above; type: in vivo, Zea mays; conditions: one-leaf stage, rated visually after about 3 weeks vs untreated controls; for plant injury at 20 g/ha: read-out: Post-emergence effect at 20 g/ha against ZEAMX in %
Procedure, shortened: as §2

KCHSC = test: Post-emergence herbicidal effect, greenhouse pot test; type: in vivo
Procedure, shortened: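 Visual rating of activity against untreated plants (100% = plants died, 0% = no effect), done about 3 weeks after treatment. Compounds applied at 20–320 g/ha as aqueous spray (600 l/ha, 0.5% additive) from WP or EC formulations onto one-leaf-stage plants grown in sandy loam under greenhouse conditions.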

[1] = Echinochloa crus-galli, 504 h, 320 g/ha, read-out: Post-emergence effect against ECHCG in %
[2] = Veronica persica, 504 h, 80 g/ha, read-out: Post-emergence effect against VERPE in %
[3] = Veronica persica, 504 h, 320 g/ha, read-out: Post-emergence effect against VERPE in %
[4] = Amaranthus retroflexus, 504 h, 320 g/ha, read-out: Post-emergence effect against AMARE
[5] = Abutilon theophrasti, 504 h, 320 g/ha, read-out: Post-emergence effect against ABUTH

COC(=O)CCOC(=O)C(OC)Oc1nn(-c2cc(F)ccc2F)c(-c2cncc(F)c2)c1C1CC1 (single isomer, unassigned) [Example I-78]
0%: Post-emergence effect at 20 g/ha against TRZAS in % (TRZAS)
90%: Post-emergence effect against SETVI in % (SETVI; 80 g/ha) | Post-emergence effect against SETVI in % (SETVI; 320 g/ha) | Post-emergence effect against POLCO in % (POLCO; 80 g/ha) | Post-emergence effect against POLCO in % (POLCO; 320 g/ha) | Post-emergence effect against ECHCG (ECHCG; 20 g/ha, visual rating about 3 weeks after treatment) | Post-emergence effect against ECHCG in % (ECHCG; 80 g/ha) | Post-emergence effect against ECHCG in % (ECHCG; 320 g/ha) | Post-emergence effect against VIOTR in % (VIOTR; 80 g/ha) | Post-emergence effect against VIOTR in % (VIOTR; 320 g/ha) | Post-emergence effect against MATIN in % (MATIN; 80 g/ha) | Post-emergence effect against MATIN in % (MATIN; 320 g/ha) | Post-emergence effect against LOLRI in % (LOLRI; 80 g/ha) | Post-emergence effect against LOLRI in % (LOLRI; 320 g/ha) | Post-emergence effect against ALOMY (ALOMY) | Post-emergence effect against VERPE in % (VERPE; 80 g/ha) | Post-emergence effect against VERPE in % (VERPE; 320 g/ha) | Post-emergence effect against AVEFA (AVEFA; 80 g/ha) | Post-emergence effect against AVEFA (AVEFA; 320 g/ha) | Post-emergence effect against AMARE (AMARE; 80 g/ha) | Post-emergence effect against AMARE (AMARE; 320 g/ha) | Post-emergence effect against PHBPU in % (PHBPU; 80 g/ha) | Post-emergence effect against PHBPU in % (PHBPU; 320 g/ha)
80%: Post-emergence effect against VIOTR in % (VIOTR; 20 g/ha) | Post-emergence effect against MATIN in % (MATIN; 20 g/ha) | Post-emergence effect against VERPE in % (VERPE; 20 g/ha) | Post-emergence effect against DIGSA (DIGSA) | Post-emergence effect against PHBPU in % (PHBPU; 20 g/ha) | Post-emergence effect against ABUTH (ABUTH; 20 g/ha) | Post-emergence effect against ABUTH (ABUTH; 80 g/ha) | Post-emergence effect against ABUTH (ABUTH; 320 g/ha)

COC(=O)C(OC)Oc1nn(-c2ncccc2F)c(-c2ccc(F)nc2)c1Cl (centres unmarked) [Example I-38]
80%: pest or weed control at 80 g/ha (VIOTR; 80 g/ha) | pest or weed control at 20 g/ha (VERPE; Veronica persica, 504 h, 20 g/ha, read-out: Post-emergence effect against VERPE in %) | pest or weed control at 80 g/ha (VERPE; [2]) | pest or weed control at 320 g/ha (ABUTH; [5])
100%: pest or weed control at 320 g/ha (ECHCG; [1]) | pest or weed control at 320 g/ha (LOLRI; 320 g/ha) | pest or weed control at 320 g/ha (ALOMY) | pest or weed control at 320 g/ha (VERPE; [3])
90%: pest or weed control at 320 g/ha (SETVI; Setaria viridis, 504 h, 320 g/ha, read-out: Post-emergence effect against SETVI in %) | pest or weed control at 80 g/ha (POLCO; 80 g/ha) | pest or weed control at 320 g/ha (POLCO; 320 g/ha) | pest or weed control at 320 g/ha (VIOTR; 320 g/ha) | pest or weed control at 320 g/ha (AVEFA; 320 g/ha) | pest or weed control at 320 g/ha (DIGSA) | pest or weed control at 80 g/ha (AMARE; Amaranthus retroflexus, 504 h, 80 g/ha, read-out: Post-emergence effect against AMARE) | pest or weed control at 320 g/ha (AMARE; [4]) | pest or weed control at 80 g/ha (PHBPU; 80 g/ha) | pest or weed control at 320 g/ha (PHBPU; 320 g/ha)
0%: plant injury at 20 g/ha (ZEAMX; Zea mays, 504 h, 20 g/ha) | percent crop injury (phytotoxicity) to wheat, post-emergence at 20 g/ha (TRZAS)

CCOC(=O)C(OC)Oc1nn(-c2cnccn2)c(-c2ccc(F)nc2)c1Br (centres unmarked) [Example I-47]
80%: pest or weed control at 80 g/ha (POLCO; 80 g/ha) | pest or weed control at 320 g/ha (POLCO; 320 g/ha) | pest or weed control at 80 g/ha (VIOTR; 80 g/ha) | pest or weed control at 80 g/ha (VERPE; [2]) | pest or weed control at 320 g/ha (AVEFA; 320 g/ha) | pest or weed control at 320 g/ha (DIGSA) | pest or weed control at 320 g/ha (AMARE; [4]) | pest or weed control at 80 g/ha (PHBPU; 80 g/ha) | pest or weed control at 80 g/ha (ABUTH; Abutilon theophrasti, 504 h, 80 g/ha, read-out: Post-emergence effect against ABUTH)
0%: plant injury at 20 g/ha (ZEAMX; Zea mays, 504 h, 20 g/ha) | plant injury at 80 g/ha (ZEAMX; Zea mays, 504 h, 80 g/ha, read-out: Post-emergence effect at 80 g/ha against ZEAMX in %) | percent crop injury (phytotoxicity) to wheat, post-emergence at 20 g/ha (TRZAS)
90%: pest or weed control at 80 g/ha (ECHCG; Echinochloa crus-galli, 504 h, 80 g/ha, read-out: Post-emergence effect against ECHCG in %) | pest or weed control at 320 g/ha (ECHCG; [1]) | pest or weed control at 320 g/ha (VIOTR; 320 g/ha) | pest or weed control at 320 g/ha (LOLRI; 320 g/ha) | pest or weed control at 320 g/ha (VERPE; [3]) | pest or weed control at 320 g/ha (PHBPU; 320 g/ha) | pest or weed control at 80 g/ha (KCHSC; 504 h, 80 g/ha, read-out: Post-emergence effect against KCHSC in %) | pest or weed control at 320 g/ha (KCHSC; 504 h, 320 g/ha, read-out: Post-emergence effect against KCHSC in %) | pest or weed control at 320 g/ha (ABUTH; [5])

COC(Oc1nn(-c2ncccc2F)c(-c2ccc(F)nc2)c1C1CC1)C(=O)O (centres unmarked) [Example I-89]
80%: Post-emergence effect against AVEFA (AVEFA; 320 g/ha)
0%: Post-emergence effect at 20 g/ha against ZEAMX in % (ZEAMX; 20 g/ha) | Post-emergence effect at 80 g/ha against ZEAMX in % (ZEAMX; 80 g/ha) | Post-emergence effect at 20 g/ha against TRZAS in % (TRZAS)
90%: Post-emergence effect against POLCO in % (POLCO; 320 g/ha) | pest or weed control at 320 g/ha (LOLRI; 320 g/ha) | pest or weed control at 320 g/ha (ALOMY) | Post-emergence effect against KCHSC in % (KCHSC; 320 g/ha)
